This passage reports Activity results from ChEMBL document CHEMBL3045193, “Synthesis and Herbicidal Activity of 1H-2, 3-Benzoxazine Derivatives” (J Pestic Sci, 2002).

The structures appear in SMILES notation.

Data set [1] relates to Digitaria ciliaris. As to the kind of experiment: Herbicidal activity against Digitaria ciliaris assessed as killing at 2 kg/ha. Type of data set: functional.
Data set [2] relates to Echinochloa crus-galli. Put plainly: Herbicidal activity against Echinochloa crus-galli (barnyard grass) assessed as killing at 2 kg/ha. Type of data set: functional.
The test system of data set [3] is Gossypium hirsutum. Put plainly: Toxicity in Gossypium hirsutum (cotton) assessed as killing at 1 kg/ha by crop selectivity assay. Type of data set: organism-based. The conditions noted are these: in vivo.
Data set [4] has as its system Glycine max. As to the kind of experiment: Toxicity in Glycine max (soybean) assessed as killing at 1 kg/ha by crop selectivity assay. As to conditions: in vivo. Type of data set: organism-based.
The subject of data set [5] is Amaranthus viridis. As to the kind of experiment: Herbicidal activity against Amaranthus viridis assessed as killing at 1 kg/ha. Type of data set: functional.
The subject of data set [6] is Digitaria ciliaris. Put plainly: Herbicidal activity against Digitaria ciliaris assessed as killing at 1 kg/ha. Type of data set: functional.
The subject of data set [7] is Persicaria lapathifolia. Put plainly: Herbicidal activity against Persicaria lapathifolia assessed as killing at 1 kg/ha. Type of data set: functional.
Data set [8] deals with Echinochloa crus-galli. Put plainly: Herbicidal activity against Echinochloa crus-galli (barnyard grass) assessed as killing at 1 kg/ha. Type of data set: functional.
Data set [9] relates to Gossypium hirsutum. Put plainly: Toxicity in Gossypium hirsutum (cotton) assessed as killing at 2 kg/ha by crop selectivity assay. As to conditions: in vivo. Type of data set: organism-based.
Data set [10] has as its system Triticum aestivum. As to the kind of experiment: Toxicity in Triticum aestivum (wheat) plant assessed as killing at 2 kg/ha by crop selectivity assay. Type of data set: organism-based. As to conditions: in vivo.
Data set [11] has as its system Glycine max. As to the kind of experiment: Toxicity in Glycine max (soybean) assessed as killing at 2 kg/ha by crop selectivity assay. The conditions noted are these: in vivo. Type of data set: organism-based.
For data set [12], the system named is Amaranthus viridis. Put plainly: Herbicidal activity against Amaranthus viridis assessed as killing at 2 kg/ha. Type of data set: functional.
Data set [13] has as its system Persicaria lapathifolia. As to the kind of experiment: Herbicidal activity against Persicaria lapathifolia assessed as killing at 2 kg/ha. Type of data set: functional.
In data set [14] the test system is Triticum aestivum. Put plainly: Toxicity in Triticum aestivum (wheat) plant assessed as killing at 1 kg/ha by crop selectivity assay. Type of data set: organism-based. As to conditions: in vivo.

Consider `c1ccc(C2=NOCc3ccccc32)cc1`, for which the Activity with Digitaria ciliaris [1] came out at 20%; in the data set with Echinochloa crus-galli [2] it was 0%.

Consider `Fc1cccc(C2=NOCc3ccccc32)c1`, for which the Activity in the data set on Digitaria ciliaris [1] is 60%; in the data set on Echinochloa crus-galli [2] it was 20%.

With `Brc1cccc(C2=NOCc3ccccc32)c1`, the values for the Activity in the data set on Digitaria ciliaris [1] and with Echinochloa crus-galli [2] were 100% and 80%, respectively.

`Ic1cccc(C2=NOCc3ccccc32)c1`: the Activity in the data set on Digitaria ciliaris [1] and in the data set on Echinochloa crus-galli [2] was 60% throughout.

Regarding `Cc1cccc(C2=NOCc3ccccc32)c1`, the Activity was found to be 60% in the data set on Digitaria ciliaris [1] and 40% with Echinochloa crus-galli [2].

With `COc1cccc(C2=NOCc3ccccc32)c1`, the Activity with Digitaria ciliaris [1] stood at 20%; in the data set with Echinochloa crus-galli [2] it was 0%.

Take `FC(F)(F)c1cccc(C2=NOCc3ccccc32)c1`: the Activity in the data set on Digitaria ciliaris [1] was found to be 90%; with Echinochloa crus-galli [2], 70%.

In the case of `Oc1cccc(C2=NOCc3ccccc32)c1`, the Activity in the data set with Digitaria ciliaris [1] and in the data set on Echinochloa crus-galli [2] was 0% in each case.

For `O=[N+]([O-])c1cccc(C2=NOCc3ccccc32)c1`, the Activity in the data set with Digitaria ciliaris [1] is listed as 60%; with Echinochloa crus-galli [2], 40%.

`N#Cc1cccc(C2=NOCc3ccccc32)c1`: the Activity with Digitaria ciliaris [1] was found to be 40%; in the data set on Echinochloa crus-galli [2], 20%.

Regarding `Clc1cccc(C2=NOCc3ccccc32)c1Cl`, the Activity in the data set with Digitaria ciliaris [1] and with Echinochloa crus-galli [2] was 0% throughout.

For `Clc1ccc(C2=NOCc3ccccc32)cc1Cl`, the Activity worked out at 100% in the data set with Digitaria ciliaris [1] and 80% in the data set on Echinochloa crus-galli [2].

As to `Clc1cc(Cl)cc(C2=NOCc3ccccc32)c1`, the Activity with Digitaria ciliaris [1] and in the data set with Echinochloa crus-galli [2] was 0% each time.

For `Clc1ccc(Cl)c(C2=NOCc3ccccc32)c1`, the Activity with Digitaria ciliaris [1] and in the data set on Echinochloa crus-galli [2] was 0% in each case.

In the case of `Fc1ccc(C2=NOCc3ccccc32)cc1Cl`, the Activity is 0% in the data set with Gossypium hirsutum [3]; 0% in the data set with Glycine max [4]; 80% in the data set on Amaranthus viridis [5]; 100% in the data set on Digitaria ciliaris [6]; 100% in the data set with Persicaria lapathifolia [7]; 100% with Echinochloa crus-galli [8]. Further, the Activity is listed as 20% with Gossypium hirsutum [9]; 20% in the data set on Triticum aestivum [10]; 0% with Glycine max [11]; 90% in the data set on Amaranthus viridis [12]; 100% with Digitaria ciliaris [1]; 100% in the data set with Persicaria lapathifolia [13]. In addition, in the data set with Echinochloa crus-galli [2], the Activity is 100%.

For `Fc1cc(C2=NOCc3ccccc32)ccc1Cl`, the Activity was 90% in the data set on Digitaria ciliaris [1] and 60% in the data set with Echinochloa crus-galli [2].

For the molecule `Fc1ccc(C2=NOCc3ccccc32)cc1F`, the Activity in the data set on Digitaria ciliaris [1] and with Echinochloa crus-galli [2] was 80% in each case.

Regarding `Fc1ccc(C2=NOCc3ccccc32)cc1Br`, the Activity in the data set on Digitaria ciliaris [1] and in the data set with Echinochloa crus-galli [2] was 100% each time.

Consider `Fc1ccc(C2=NOCc3ccccc32)cc1C(F)(F)F`, for which the figures for the Activity in the data set with Digitaria ciliaris [1] and in the data set with Echinochloa crus-galli [2] were 100% and 90%, respectively.

For the molecule `Fc1ccc2c(c1)C(c1ccc(F)c(Cl)c1)=NOC2`, the Activity was determined as 100% in the data set on Digitaria ciliaris [1] and 60% with Echinochloa crus-galli [2].

As to `Fc1ccc2c(c1)CON=C2c1ccc(F)c(Cl)c1`, the Activity in the data set with Digitaria ciliaris [1] is 100%; with Echinochloa crus-galli [2], 50%.

Take `Fc1ccc(C2=NOCc3c(F)cccc32)cc1Cl`: the Activity in the data set on Digitaria ciliaris [1] came to 100%; in the data set with Echinochloa crus-galli [2] it was 60%.

With `Fc1ccc(C2=NOCc3ccc(Cl)cc32)cc1Cl`, the Activity in the data set on Digitaria ciliaris [1] is reported as 100%; in the data set with Echinochloa crus-galli [2] it was 90%.

Take `Fc1ccc(C2=NOCc3cc(Cl)ccc32)cc1Cl`: the results for the Activity with Digitaria ciliaris [1] and with Echinochloa crus-galli [2] were 60% and 0%, respectively.

For the molecule `Fc1ccc(C2=NOCc3c(Cl)cccc32)cc1Cl`, the Activity in the data set on Digitaria ciliaris [1] and with Echinochloa crus-galli [2] was 0% each time.

For `Fc1ccc2c(c1)C(c1ccc(F)c(Br)c1)=NOC2`, the Activity was found to be 0% in the data set on Gossypium hirsutum [3]; 0% with Glycine max [4]; 80% with Amaranthus viridis [5]; 100% in the data set with Digitaria ciliaris [6]; 60% in the data set with Persicaria lapathifolia [7]; 100% in the data set with Echinochloa crus-galli [8]. Moreover, the Activity is listed as 0% in the data set on Gossypium hirsutum [9]; 20% with Triticum aestivum [10]; 0% with Glycine max [11]; 100% with Amaranthus viridis [12]; 100% in the data set with Digitaria ciliaris [1]; 80% with Persicaria lapathifolia [13]. Also, the Activity in the data set on Echinochloa crus-galli [2] is 100%.

For the molecule `Fc1ccc2c(c1)CON=C2c1ccc(F)c(Br)c1`, the values for the Activity in the data set with Digitaria ciliaris [1] and with Echinochloa crus-galli [2] were 100% and 20%, respectively.

For `Clc1ccccc1C1=NOCc2ccccc21`, the Activity in the data set with Amaranthus viridis [12], in the data set with Digitaria ciliaris [1], with Persicaria lapathifolia [13] and in the data set with Echinochloa crus-galli [2] was 0% each time.

`Clc1cccc(C2=NOCc3ccccc32)c1`: the Activity is listed as 60% in the data set on Amaranthus viridis [12], 100% in the data set with Digitaria ciliaris [1], 60% with Persicaria lapathifolia [13] and 90% with Echinochloa crus-galli [2].

Consider `Clc1ccc(C2=NOCc3ccccc32)cc1`, for which the Activity amounted to 20% in the data set with Amaranthus viridis [12], 20% with Digitaria ciliaris [1], 0% in the data set on Persicaria lapathifolia [13] and 40% with Echinochloa crus-galli [2].

On to `Clc1cc(C2=NOCc3ccccc32)ccn1`, for which the Activity with Amaranthus viridis [12] was found to be 60%; with Digitaria ciliaris [1], 60%; in the data set on Persicaria lapathifolia [13] it was 60%; in the data set with Echinochloa crus-galli [2] it was 80%.

Turning to `Clc1ccc(C2=NOCc3ccccc32)s1`, the Activity stood at 20% in the data set with Amaranthus viridis [12], 40% in the data set on Digitaria ciliaris [1], 20% in the data set with Persicaria lapathifolia [13] and 20% in the data set on Echinochloa crus-galli [2].

With `Cc1cc(C2=NOCc3ccccc32)no1`, the Activity in the data set on Amaranthus viridis [12], in the data set with Digitaria ciliaris [1], with Persicaria lapathifolia [13] and in the data set with Echinochloa crus-galli [2] was 0% each time.

Take `Cc1cc(C2=NOCc3ccccc32)on1`: the Activity in the data set on Amaranthus viridis [12], in the data set on Digitaria ciliaris [1], with Persicaria lapathifolia [13] and in the data set with Echinochloa crus-galli [2] was 0% each time.

As to `Cn1ccnc1C1=NOCc2ccccc21`, the Activity in the data set with Amaranthus viridis [12], with Digitaria ciliaris [1], in the data set on Persicaria lapathifolia [13] and with Echinochloa crus-galli [2] was 0% each time.

On to `CCCCCCCC(=O)Oc1c(I)cc(C#N)cc1I` [IOXYNIL OCTANOATE], for which the Activity was found to be 0% in the data set on Gossypium hirsutum [3]; 0% in the data set with Glycine max [4]; 0% in the data set on Triticum aestivum [14]; 100% in the data set on Amaranthus viridis [5]; 80% with Digitaria ciliaris [6]; 90% in the data set with Persicaria lapathifolia [7]. In addition, the Activity was determined as 80% in the data set on Echinochloa crus-galli [8]; 0% in the data set with Gossypium hirsutum [9]; 0% in the data set on Triticum aestivum [10]; 20% with Glycine max [11]; 100% in the data set on Amaranthus viridis [12]; 80% in the data set with Digitaria ciliaris [1]. Also, the Activity in the data set on Persicaria lapathifolia [13] and in the data set with Echinochloa crus-galli [2] was 90% each time.
